Test results taken from US12018024B2, “Compounds and compositions for the treatment of cryptosporidiosis” (Novartis AG, priority 2020, dated 2024).

Key:
C. parvum PI(4)K = C. parvum PI(4)K (Cryptosporidium parvum, UniProt Q5CVD3); assay: CpPI(4)K enzymatic assay (Transcreener ADP2 FP); format: biochemical
Description: Baculovirus expression and purification of C. parvum phosphatidylinositol 4-kinase: The full-length coding sequence of C. parvum PI(4)K (cgd8_4500, 1114 amino acids) was codon-optimized for baculovirus expression, synthesized and cloned into pFastBac-HTb (Invitrogen 10584-027) in frame with the amino-terminal polyhistidine tag using the BamHI and HindIII restriction sites. Recombinant pFastBacHTb-CpPI(4)K bacmid clones were generated by site-specific transposition in E. coli DH10Bac (Invitrogen 10361-012). The bacmid sequence was confirmed by direct DNA sequencing to confirm a lack of mutations across the whole gene. The subsequent steps for bacmid isolation, transfection and selection of the recombinant viruses were performed according to the manufacturer's protocol (Bac-to-Bac system #10359, Invitrogen).
SF9 cells, cultured in […] serum-free medium, were transfected with recombinant baculovirus at 1/200 (v/v) and incubated at 27° C. for 72 h. The pellets were collected after centrifugation and re-suspended in cell lysis buffer (20 mM Tris-HCl, pH 7.5, 300 mM NaCl, 1 mM DTT, 20 mM imidazole, 0.01% Triton X-100 and 1× complete protease inhibitor cocktail without EDTA (Roche Diagnostics 04693116001)). The cell suspension was lysed by sonication and the clarified supernatant was loaded onto a 1 ml HisTrap affinity column (GE Healthcare) pre-equilibrated with buffer A (20 mM Tris-HCl, pH 7.5, 300 mM NaCl, 1 mM DTT, 20 mM Imidazole, and 1× complete protease inhibitor cocktail without EDTA). The column was washed with buffer B (buffer A containing 45 mM imidazole) and the bound protein of interest was eluted with buffer C (buffer A with 90 mM imidazole). The fractions containing CpPI(4)K were pooled, concentrated using Amicon Ultra-15 and purified by a gel-filtration column (Hi-Load 26/60 Superdex 200, GE Healthcare) equilibrated with 20 mM Tris, pH 7.5, 300 mM NaCl, 1 mM DTT and 1× protease inhibitor cocktail without EDTA. The concentrations of the purified protein (Mw 132.39 kda) was determined by using the protein molar extinction coefficient (ε280 nm=133,810 M^−1 cm^−1). Aliquots were flash frozen in liquid nitrogen and immediately stored at −80° C.
PI(4)K enzymatic Assay The CpPI(4)K enzymatic assay was performed as described earlier with a some modifications (McNamara et al., 2013). Briefly, L-α-phosphatidylinositol (Avanti Polar Lipid 840046), dissolved in 3% n-octylglucoside (Roche Diagnostics 10634425001), was used as the lipid substrate for the PI(4)K activity assay. CpPI(4)K was assayed using Transcreener ADP2 FP detection kit (BellBrook 3010) in a black, solid 384-well plate (Corning 3575). The final assay volume was 10 μl and contained 3 nM of the respective CpPI(4)K construct in 10 mM Tris, pH 7.5, 1 mM DTT, 3 μM ATP, 5 mM Mn2+, 0.05% Triton X-100 and 10 μM phosphatidylinositol/octylglucoside. The enzyme reaction was performed for 50 minutes at room temperature and was stopped by adding 10 μl of detection mix containing 1× stop buffer (50 mM HEPES, pH7.5, 400 mM NaCl, 20 mM EDTA, and 0.02% Brij-35), 2 nM AMP Alexa Fluor 633 tracer, and 20 μg ml^−1 ADP antibody. Fluorescence polarization measurements were performed on the Infinite M1000 plate reader (Tecan) with λex=635 nm and λem=680 nm (20-nm bandwidth). IC50 values were calculated using Graphpad Prism software.

Cryptosporidium parvum = assay: Cytopathic effect (CPE) based assay, C. parvum-infected HCT-8 cells; format: cell-based; conditions: HCT-8, 48 h, read-out: (b) C.p.* CPE EC50 (μM)
Description: (§1) Human ileocecal colorectal adenocarcinoma cells (HCT-8 [HRT-18] ATCC, CCL-34) were maintained in T-175 flasks (Corning, 431080) in complete growth medium (RPMI-1640 medium (Gibco, 11875) supplemented with 10% heat-inactivated horse serum (Gibco, 26050), 1× MEM non-essential amino acids (Gibco, 11140), 10 mM HEPES (Gibco, 15630), 100 units/mL penicillin, and 100 units/mL streptomycin) at 37° C. and 5% CO2 in a humidified incubator. Cultures were passaged twice weekly using 10 mL of 1× Phosphate-Buffered Saline (PBS) without Ca^2+ and Mg^2+ (Gibco, 20012) for washing and 3-5 mL per T-175 flask of TrypLE Express Enzyme (Gibco, 12604) for dissociation of adherent cells.
Cryptosporidium parvum oocysts purchased from the Sterling Laboratory, University of Arizona (Iowa isolate) were purified from infected calf feces using discontinuous sucrose and cesium chloride centrifugation gradients and stored in PBS solution containing 0.01% Tween 20, 100 units/mL penicillin and 100 units/mL gentamicin.
(§2) Excystaion and infection: Excystation and infection protocols were developed following established methods with some modifications (Gut & Nelson, 1999, Upton et al., 1995, Bessoff et al., 2013). Briefly, oocysts were primed in 1 mL of 10 mM hydrochloric acid in 1× Hank's Balanced Salt Solution (HBSS) (Gibco, 14025) for 10 minutes with agitation at 1000 rpm, 37° C. on an Eppendorf thermomixer, then washed twice with 1 mL of room temperature non-acidic 1× HBSS by centrifugation at 13,000 rpm for 3 minutes at 25° C. Primed oocysts were further excysted at a concentration of 1×10^6 oocysts/μL in parasite infection medium consisting of a pre-warmed and pre-gassed 1:1 formulation of Leibovitz's L-15 medium (Gibco, 11415) and UltraCULTURE medium (Lonza, 12-725F) supplemented with 2 mM sodium taurocholate (Sigma, 86339-1), 10% heat-inactivated horse serum, and 200 μM L-ascorbic acid (Sigma, 95210) at 25° C. for 10 minutes. HCT-8 monolayer cells were infected with excysted cryptosporidium at a specified multiplicity of infection (MOI). All dilutions for subsequent assays were performed in parasite infection medium without sodium taurocholate. Pre-excysted oocysts were enumerated microscopically using a C-Chip disposable hemocytometer (NanoEnTek, DHC-N01).
Compound and assay plate preparation: Compound powders were dissolved in neat DMSO (Fisher, D4121) to 10 mM and stored at 4° C. prior to dilution into source plates. Dilutions were carried out using a Microlab STAR liquid handler (Hamilton) to obtain compound source plates containing the ten-point or eight-point three fold dilutions starting from 10 mM in duplicates. Source plates were stored at 4° C. prior to spotting into assay plates. Before administration, all compound source plates were equilibrated to room temperature. A specified volume of compounds from source plate were spotted to assay plate using an Echo Acoustic liquid handler (LABCYTE, 550) so that the final DMSO concentration was less than 0.5%. Each assay plate a specified number of DMSO-treated negative control wells and a well-studied potent active compound at 100 nM as positive control. As a quality control, all positive and negative-control wells were used to calculate a Z′-value and signal to noise ratio (S:N) for each plate.
Cryptosporidium spp are obligate-intracellular parasites that infect intestinal epithelial cells and the host cell is killed upon parasite egress. […] The loss of epithelial cells is due to both rapid parasite invasion/multiplication/egress and also pro-inflammatory immune response (Adams et al., 1994, Griffiths et al., 1994). We have observed a consistent cytopathic effect (CPE) in HCT-8 cells with C. spp infection the loss of viability of the host cells using CellTiter-Glo reagent.
Confluent HCT-8 cells in T-175 flasks were directly infected with excysted oocysts at an MOI (host to parasite) of 1:2 for C. parvum and 1:4 for C. hominis. […]

Cryptosporidium hominis = assay: Cytopathic effect (CPE) based assay, C. hominis-infected HCT-8 cells; format: cell-based; conditions: HCT-8 host cells, 48 hours treatment, CellTiter-Glo, read-out: (c) C.h.* CPE EC50
Description: as §1
Cryptosporidium hominis oocysts were purchased from the Tufts University Cummings School of Veterinary Medicine (courtesy of Dr. Saul Tzipori). C. hominis oocysts were purified from infected gnotobiotic piglet feces and stored in PBS solution containing 0.01% Tween-20, 100 units/mL penicillin and 100 units/mL gentamicin. C. parvum and C. hominis oocysts less than three months old from the date of shedding were used in infection experiments.
as §2
Compound and assay plate preparation: Compound powders were dissolved in neat DMSO (Fisher, D4121) to 10 mM and stored at 4° C. prior to dilution into source plates. Dilutions were carried out using a Microlab STAR liquid handler (Hamilton) to obtain compound source plates containing the ten-point or eight-point three fold dilutions starting from 10 mM in duplicates. […]

H.s. PI(4)K = H.s. PI(4)K (Homo sapiens, UniProt Q9UBF8); assay: H.s. PI(4)K IC50; format: biochemical; conditions: read-out: (d) H.s.* PI(4)K IC50
Chain of H.s. PI(4)K (Q9UBF8 2-816 limits assumed): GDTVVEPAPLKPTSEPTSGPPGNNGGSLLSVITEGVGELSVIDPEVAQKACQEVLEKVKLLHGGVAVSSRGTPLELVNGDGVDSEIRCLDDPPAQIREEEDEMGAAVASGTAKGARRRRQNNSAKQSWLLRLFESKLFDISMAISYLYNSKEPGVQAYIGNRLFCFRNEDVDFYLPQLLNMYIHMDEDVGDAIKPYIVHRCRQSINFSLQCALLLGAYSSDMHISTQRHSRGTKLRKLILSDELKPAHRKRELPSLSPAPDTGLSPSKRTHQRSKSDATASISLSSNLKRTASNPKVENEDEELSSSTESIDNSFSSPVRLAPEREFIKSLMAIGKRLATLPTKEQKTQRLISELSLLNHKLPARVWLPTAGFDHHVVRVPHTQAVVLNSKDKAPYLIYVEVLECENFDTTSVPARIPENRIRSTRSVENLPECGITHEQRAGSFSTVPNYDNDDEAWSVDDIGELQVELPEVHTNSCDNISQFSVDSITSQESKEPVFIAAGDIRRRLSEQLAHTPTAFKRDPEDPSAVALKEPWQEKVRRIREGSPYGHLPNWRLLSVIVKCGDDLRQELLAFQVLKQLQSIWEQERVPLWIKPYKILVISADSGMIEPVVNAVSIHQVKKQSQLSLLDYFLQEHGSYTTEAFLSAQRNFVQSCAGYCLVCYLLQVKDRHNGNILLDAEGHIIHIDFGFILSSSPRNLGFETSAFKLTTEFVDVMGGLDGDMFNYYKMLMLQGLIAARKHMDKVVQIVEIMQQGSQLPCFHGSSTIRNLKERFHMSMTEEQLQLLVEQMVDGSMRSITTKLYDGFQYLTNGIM

Chain of C. parvum PI(4)K (Q5CVD3 entry or part of it): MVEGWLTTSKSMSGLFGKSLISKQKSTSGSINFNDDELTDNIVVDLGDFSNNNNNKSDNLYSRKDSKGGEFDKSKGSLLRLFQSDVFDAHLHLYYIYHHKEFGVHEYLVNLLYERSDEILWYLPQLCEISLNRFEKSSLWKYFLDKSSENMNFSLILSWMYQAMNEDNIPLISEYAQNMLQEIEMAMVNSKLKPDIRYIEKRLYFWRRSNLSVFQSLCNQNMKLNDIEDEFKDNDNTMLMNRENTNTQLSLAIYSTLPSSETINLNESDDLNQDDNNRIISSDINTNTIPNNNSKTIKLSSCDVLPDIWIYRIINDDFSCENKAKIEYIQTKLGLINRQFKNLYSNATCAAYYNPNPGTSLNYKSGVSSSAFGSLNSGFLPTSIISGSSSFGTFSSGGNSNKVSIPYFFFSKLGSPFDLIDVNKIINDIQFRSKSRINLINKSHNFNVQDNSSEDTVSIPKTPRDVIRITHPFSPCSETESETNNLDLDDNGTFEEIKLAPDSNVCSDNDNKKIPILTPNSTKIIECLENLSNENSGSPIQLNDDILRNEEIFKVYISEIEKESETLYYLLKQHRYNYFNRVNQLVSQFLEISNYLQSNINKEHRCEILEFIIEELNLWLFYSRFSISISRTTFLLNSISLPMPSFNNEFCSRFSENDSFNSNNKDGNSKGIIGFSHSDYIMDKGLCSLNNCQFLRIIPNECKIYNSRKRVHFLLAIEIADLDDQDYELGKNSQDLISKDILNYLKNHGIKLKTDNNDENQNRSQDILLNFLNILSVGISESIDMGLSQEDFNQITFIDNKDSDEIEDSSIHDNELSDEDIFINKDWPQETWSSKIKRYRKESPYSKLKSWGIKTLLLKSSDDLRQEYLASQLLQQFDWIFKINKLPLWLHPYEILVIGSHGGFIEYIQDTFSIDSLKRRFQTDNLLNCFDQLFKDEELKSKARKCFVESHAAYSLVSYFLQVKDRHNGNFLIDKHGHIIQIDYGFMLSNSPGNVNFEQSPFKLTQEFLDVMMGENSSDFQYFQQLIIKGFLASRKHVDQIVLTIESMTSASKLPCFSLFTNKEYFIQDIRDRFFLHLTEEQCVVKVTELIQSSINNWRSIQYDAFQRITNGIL

| Structure (SMILES) | IC50 (C. parvum PI(4)K) [nM] | EC50 (Cryptosporidium parvum) [µM] | EC50 (Cryptosporidium hominis) [nM] | IC50 (H.s. PI(4)K) [nM] |
| --- | --- | --- | --- | --- |
| COC(=O)c1cc(N(C)C(=O)c2ccn3ncc(-c4ccc(C(N)=O)cc4)c3c2)ccc1Cl [Example 1.01, Methyl 5-(3-(4-carbamoylphenyl)-N-methylpyrazolo[1,5-a]pyridine-5-carboxamido)-2-chlorobenzoate] | < 100 | < 0.1 | < 100 | 100 to 1000 |
| CN(C(=O)c1ccn2ncc(-c3ccc(C(N)=O)cc3)c2c1)c1ccc(Cl)c(C(=O)O)c1 [Example 1.03, 5-(3-(4-Carbamoylphenyl)-N-methylpyrazolo[1,5-a]pyridine-5-carboxamido)-2-chlorobenzoic acid] | < 100 | > 1 |  | 100 to 1000 |
| CN(C(=O)c1ccn2ncc(-c3ccc(C(N)=O)cc3)c2c1)c1ccc(Cl)c(C(=O)OCCN2CCOCC2)c1 [Example 1.08, 2-Morpholinoethyl 5-(3-(4-carbamoylphenyl)-N-methylpyrazolo[1,5-a]pyrdine-5-carboxamido)-2-chlorobenzoate] | < 100 | 0.1 to 1 |  | > 1000 |
| CNC(=O)c1ccc(-c2cnn3ccc(C(=O)N(C)c4ccc(Cl)c(C(=O)O)c4)cc23)cc1 [Example 1.18, 2-Chloro-5-(N-methyl-3-(4-(methylcarbamoyl)phenyl)pyrazolo[1,5-a]pyridine-5-carboxamido)benzoic acid] | < 100 | > 1 |  | 100 to 1000 |
| CNC(=O)c1ccc(-c2cnn3ccc(C(=O)N(C)c4ccc(Cl)c(C(=O)OCCN5CCOCC5)c4)cc23)cc1 [Example 1.19, 2-Morpholinoethyl 2-chloro-5-(N-methyl-3-(4-(methylcarbamoyl)phenyl)pyrazolo[1,5-a]pyridine-5-carboxamido)benzoate] | < 100 | 0.1 to 1 |  | 100 to 1000 |
| COC(=O)c1cc(N(C)C(=O)c2ccn3ncc(-c4ccc(C(N)=O)cc4C)c3c2)ccc1Cl [Example 1.21, Methyl 2-chloro-5-(N-methyl-3-(2-methyl-4-(carbamoyl)phenyl)pyrazolo[1,5-a]pyridine-5-carboxamido)benzoate] | < 100 | 0.1 to 1 |  | > 1000 |
| CNC(=O)c1ccc(-c2cnn3ccc(C(=O)N(C)c4ccc(Cl)c(C(=O)OC)c4)cc23)cc1C [Example 1.22] | 100 to 1000 | > 1 |  | > 1000 |
| COC(=O)c1cc(NC(=O)c2ccn3ncc(-c4ccc(C(N)=O)cc4)c3c2)ccc1Cl [Example 1.23, Methyl 5-(3-(4-carbamoylphenyl)pyrazolo[1,5-a]pyridine-5-carboxamido)-2-chlorobenzoate] | > 1000 | > 1 |  | > 1000 |
| CNC(=O)c1ccc(-c2cnn3ccc(C(=O)Nc4ccc(Cl)c(C(=O)OC)c4)cc23)cc1 [Example 1.24, Methyl 2-chloro-5-(3-(4-(methylcarbamoyl)phenyl)pyrazolo[1,5-a]pyridine-5-carboxamido)benzoate] | > 1000 | > 1 |  | > 1000 |
| COC(=O)c1cc(N(C)C(=O)c2ccn3ncc(-c4ccc(C(N)=O)cc4)c3c2)ccc1OC(F)(F)F [Example 1.25, Methyl 5-(3-(4-carbamoylphenyl)-N-methylpyrazolo[1,5-a]pyridine-5-carboxamido)-2-(trifluoromethoxy)benzoate] | < 100 | 0.1 to 1 |  | > 1000 |
| COC(=O)c1cc(N(C)C(=O)c2ccn3ncc(-c4ccc(C(N)=O)cc4)c3c2)ccc1C#N [Example 1.27, Methyl 5-(3-(4-carbamoylphenyl)-N-methylpyrazolo[1,5-a]pyridine-5-carboxamido)-2-cyanobenzoate] | < 100 | < 0.1 |  | > 1000 |
| CNC(=O)c1ccc(-c2cnc3cnc(C(=O)N(C)c4ccc(Cl)c(C(=O)OC)c4)cn23)cc1 [Example 2.1, Methyl 2-chloro-5-(N-methyl-3-(4-(methylcarbamoyl)phenyl)imidazo[1,2-a]pyrazine-6-carboxamido)benzoate] | < 100 | 0.1 to 1 |  | > 1000 |
